# Assay results as given in patent US20140348819A1, “Methods of Treating Cancer” (Dana-Farber Cancer Institute, Inc., priority 2011, published 2014).
# Tested on: six V600E BRAF melanoma cell lines
# Test: Screening of recombinant RTK ligands for ability to confer resistance to BRAFi (PLX4720) or MEKi (PD184352) (Table 4)
# Format: cell-based, human
# Set-up: ability of recombinant RTK ligand to confer resistance / ability of recombinant RTK ligand to confer resistance (screening value): scale not given here
# Protocol: HGF is the only one that can substantially confer drug resistance to the cell lines.
# The complexity of the tumor microenvironment is much greater than an in vitro co-culture system. Therefore, the inventors explored whether the activation of other RTKs could result in a similar resistance as that observed with the activation of MET. To this end, six V600E BRAF melanoma cell lines were tested for their resistance to either BRAFi (PLX4720) or MEKi (PD184352) after the addition of 22 RTK ligands that have the potential of activating almost all known RTKs. […] The activation of a selected subset of these RTKs was confirmed by western blotting and by high throughput tyrosine kinase phosphorylation profiling.
substance,measurement,setting,value
Collagen II,ability of recombinant RTK ligand to confer resistance,"A2058, PD184352 - 1 uM, ligand 6.25 ng/ml",0.97
same,ability of recombinant RTK ligand to confer resistance,"A2058, PD184352 - 1 uM, ligand 25 ng/ml",0.97
same,ability of recombinant RTK ligand to confer resistance,"A2058, PD184352 - 1 uM, ligand 100 ng/ml",0.99
same,ability of recombinant RTK ligand to confer resistance,"A2058, PD184352 - 1 uM, ligand 400 ng/ml",1.00
same,ability of recombinant RTK ligand to confer resistance,"A2058, PD184352 - 1 uM, ligand 1600 ng/ml",0.92
same,ability of recombinant RTK ligand to confer resistance,"A2058, PLX4720 - 2 uM, ligand 6.25 ng/ml",0.95
same,ability of recombinant RTK ligand to confer resistance,"A2058, PLX4720 - 2 uM, ligand 25 ng/ml",0.99
same,ability of recombinant RTK ligand to confer resistance,"A2058, PLX4720 - 2 uM, ligand 100 ng/ml",0.96
same,ability of recombinant RTK ligand to confer resistance,"A2058, PLX4720 - 2 uM, ligand 400 ng/ml",0.95
same,ability of recombinant RTK ligand to confer resistance,"A2058, PLX4720 - 2 uM, ligand 1600 ng/ml",0.96
same,ability of recombinant RTK ligand to confer resistance,"C32, PD184352 - 1 uM, ligand 6.25 ng/ml",0.99
same,ability of recombinant RTK ligand to confer resistance,"C32, PD184352 - 1 uM, ligand 25 ng/ml",1.03
same,ability of recombinant RTK ligand to confer resistance,"C32, PD184352 - 1 uM, ligand 100 ng/ml",1.06
same,ability of recombinant RTK ligand to confer resistance,"C32, PD184352 - 1 uM, ligand 400 ng/ml",1.18
same,ability of recombinant RTK ligand to confer resistance,"C32, PD184352 - 1 uM, ligand 1600 ng/ml",1.14
same,ability of recombinant RTK ligand to confer resistance,"C32, PLX4720 - 2 uM, ligand 6.25 ng/ml",1.03
same,ability of recombinant RTK ligand to confer resistance,"C32, PLX4720 - 2 uM, ligand 25 ng/ml",0.99
same,ability of recombinant RTK ligand to confer resistance,"C32, PLX4720 - 2 uM, ligand 100 ng/ml",0.99
same,ability of recombinant RTK ligand to confer resistance,"C32, PLX4720 - 2 uM, ligand 400 ng/ml",1.00
same,ability of recombinant RTK ligand to confer resistance,"C32, PLX4720 - 2 uM, ligand 1600 ng/ml",1.02
same,ability of recombinant RTK ligand to confer resistance,"Colo 829, PD184352 - 1 uM, ligand 6.25 ng/ml",0.95
same,ability of recombinant RTK ligand to confer resistance,"Colo 829, PD184352 - 1 uM, ligand 25 ng/ml",1.02
same,ability of recombinant RTK ligand to confer resistance,"Colo 829, PD184352 - 1 uM, ligand 100 ng/ml",1.04
same,ability of recombinant RTK ligand to confer resistance,"Colo 829, PD184352 - 1 uM, ligand 400 ng/ml",1.02
same,ability of recombinant RTK ligand to confer resistance,"Colo 829, PD184352 - 1 uM, ligand 1600 ng/ml",0.99
same,ability of recombinant RTK ligand to confer resistance,"Colo 829, PLX4720 - 2 uM, ligand 6.25 ng/ml",1.00
same,ability of recombinant RTK ligand to confer resistance,"Colo 829, PLX4720 - 2 uM, ligand 25 ng/ml",1.13
same,ability of recombinant RTK ligand to confer resistance,"Colo 829, PLX4720 - 2 uM, ligand 100 ng/ml",1.06
same,ability of recombinant RTK ligand to confer resistance,"Colo 829, PLX4720 - 2 uM, ligand 400 ng/ml",1.02
same,ability of recombinant RTK ligand to confer resistance,"Colo 829, PLX4720 - 2 uM, ligand 1600 ng/ml",0.98
same,ability of recombinant RTK ligand to confer resistance,"G-361, PD184352 - 1 uM, ligand 6.25 ng/ml",0.96
same,ability of recombinant RTK ligand to confer resistance,"G-361, PD184352 - 1 uM, ligand 25 ng/ml",1.00
same,ability of recombinant RTK ligand to confer resistance,"G-361, PD184352 - 1 uM, ligand 100 ng/ml",0.96
same,ability of recombinant RTK ligand to confer resistance,"G-361, PD184352 - 1 uM, ligand 400 ng/ml",1.01
same,ability of recombinant RTK ligand to confer resistance,"G-361, PD184352 - 1 uM, ligand 1600 ng/ml",1.03
same,ability of recombinant RTK ligand to confer resistance,"G-361, PLX4720 - 2 uM, ligand 6.25 ng/ml",0.97
same,ability of recombinant RTK ligand to confer resistance,"G-361, PLX4720 - 2 uM, ligand 25 ng/ml",0.91
same,ability of recombinant RTK ligand to confer resistance,"G-361, PLX4720 - 2 uM, ligand 100 ng/ml",0.92
same,ability of recombinant RTK ligand to confer resistance,"G-361, PLX4720 - 2 uM, ligand 400 ng/ml",0.96
same,ability of recombinant RTK ligand to confer resistance,"G-361, PLX4720 - 2 uM, ligand 1600 ng/ml",0.92
same,ability of recombinant RTK ligand to confer resistance,"SK-MEL-5, PD184352 - 1 uM, ligand 6.25 ng/ml",0.96
same,ability of recombinant RTK ligand to confer resistance,"SK-MEL-5, PD184352 - 1 uM, ligand 25 ng/ml",0.92
same,ability of recombinant RTK ligand to confer resistance,"SK-MEL-5, PD184352 - 1 uM, ligand 100 ng/ml",0.94
same,ability of recombinant RTK ligand to confer resistance,"SK-MEL-5, PD184352 - 1 uM, ligand 400 ng/ml",0.99
same,ability of recombinant RTK ligand to confer resistance,"SK-MEL-5, PD184352 - 1 uM, ligand 1600 ng/ml",0.94
same,ability of recombinant RTK ligand to confer resistance,"SK-MEL-5, PLX4720 - 2 uM, ligand 6.25 ng/ml",1.03
same,ability of recombinant RTK ligand to confer resistance,"SK-MEL-5, PLX4720 - 2 uM, ligand 25 ng/ml",1.10
same,ability of recombinant RTK ligand to confer resistance,"SK-MEL-5, PLX4720 - 2 uM, ligand 100 ng/ml",1.06
same,ability of recombinant RTK ligand to confer resistance,"SK-MEL-5, PLX4720 - 2 uM, ligand 400 ng/ml",1.00
same,ability of recombinant RTK ligand to confer resistance,"SK-MEL-5, PLX4720 - 2 uM, ligand 1600 ng/ml",1.08
same,ability of recombinant RTK ligand to confer resistance,"SK-MEL-28, PD184352 - 1 uM, ligand 6.25 ng/ml",0.98
same,ability of recombinant RTK ligand to confer resistance,"SK-MEL-28, PD184352 - 1 uM, ligand 25 ng/ml",1.10
same,ability of recombinant RTK ligand to confer resistance,"SK-MEL-28, PD184352 - 1 uM, ligand 100 ng/ml",0.98
same,ability of recombinant RTK ligand to confer resistance,"SK-MEL-28, PD184352 - 1 uM, ligand 400 ng/ml",0.94
same,ability of recombinant RTK ligand to confer resistance,"SK-MEL-28, PD184352 - 1 uM, ligand 1600 ng/ml",1.07
same,ability of recombinant RTK ligand to confer resistance,"SK-MEL-28, PLX4720 - 2 uM, ligand 6.25 ng/ml",0.94
same,ability of recombinant RTK ligand to confer resistance,"SK-MEL-28, PLX4720 - 2 uM, ligand 25 ng/ml",1.12
same,ability of recombinant RTK ligand to confer resistance,"SK-MEL-28, PLX4720 - 2 uM, ligand 100 ng/ml",0.98
same,ability of recombinant RTK ligand to confer resistance,"SK-MEL-28, PLX4720 - 2 uM, ligand 400 ng/ml",0.95
same,ability of recombinant RTK ligand to confer resistance,"SK-MEL-28, PLX4720 - 2 uM, ligand 1600 ng/ml",0.96
